Entries after “also recorded” stand apart in the source; their conditions may differ.
Assays:
[1] = system: blood-stage P. falciparum (3D7 strain); assay: Malaria SYBR green I fluorescence (MSF) assay; format: cell-based, Plasmodium falciparum
Experimental: (§1) For other parasites, L. donovani, strain MHOM/SD/62/1S-C12D, was grown as previously described. Plasmodium falciparum parasites of the 3D7 strain were cultured in RPMI 1640 medium supplemented with 37.5 mM HEPES, 10 mM D-glucose, 2 mM L-glutamine, 100 μM hypoxanthine, 25 μg/mL gentamicin, 4% (v/v) human serum and 0.25% (v/v) Albumax II, at a 2% haematocrit in an atmosphere of 1% 02, 3% CO2 and 96% N2. Staging and parasitemia of the in vitro culture were assessed by light microscopy of Giemsa-stained thin blood smears.
Compounds were tested against the blood-stage Trypanosoma brucei (48 hr endpoint) and intra-erythrocytic asexual stages Plasmodium falciparum (3D7) using CellTiter-Glo® luminescent and Malaria SYBR green I fluorescence (MSF) assays, respectively. Similar methodology will be used for future experiments.
MMV676477 was tested against several other parasites: the axenic amastigotes of Leishmania donovani and Leishmania tarentolae, blood-stage Plasmodium falciparum, and Trypanosoma brucei. The compound's activity was measured using alamarBlue®, Malaria SYBR green I fluorescence (MSF) and CellTiter-Glo® luminescent assays. […] In addition, MMV676477 has also been recently reported as having potent activity against Neospora caninum, Cryptosporidium parvum, Toxoplasma gondii, and Entamoeba histolytica.

[2] = system: L. donovani axenic amastigotes; assay: alamarBlue assay, L. donovani axenic amastigotes; format: cell-based, Leishmania donovani
Experimental: as §1
Leishmania amazonensis axenic amastigotes (100 μL, 2×10^6 cells/mL) were added to 96-multiwell plates containing 100 μL of amastigote culture medium with an appropriate compound dilution series. 0.1% DMSO (no drug) served as a positive control (100%), and 5 μM amphotericin B served as a negative growth control (0%). Only internal wells were used to minimize edge effects from evaporation. […] Similarly, the cytotoxicity of each compound was determined against RAW 264.7 cells and HepG2 cell lines, following 72 h incubation at 37° C. […]
MMV676477 was tested against several other parasites: the axenic amastigotes of Leishmania donovani and Leishmania tarentolae, blood-stage Plasmodium falciparum, and Trypanosoma brucei. The compound's activity was measured using alamarBlue®, Malaria SYBR green I fluorescence (MSF) and CellTiter-Glo® luminescent assays. […]

[3] = system: L. amazonensis promastigotes and amastigotes; assay: Microscopic analysis of cell division; format: cell-based, Leishmania amazonensis; settings: 48 h at EC50^72 h
Experimental: (§2) Promastigotes or amastigotes were treated with the indicated compound concentrations and allowed to adhere to poly-L-lysine coated plates. All cells were fixed with 4% paraformaldehyde and permeabilized/blocked with 0.01% Triton X-100 and 2% BSA in PBS. Promastigotes and amastigotes were incubated with mouse anti-gp46 or anti-p8, respectively at 1:50 or 1:1000 and rat anti-alpha-tubulin antibody at 1:1000. Samples were then probed with A568 anti-mouse and […] secondary antibodies (Molecular Probes). DNA was labeled with Hoescht. Samples were visualized on a Zeiss LSM 880 Inverted confocal Airyscan microscope at 63×; full Z-thicknesses through parasites were obtained. […] For microscopic analysis of mitotic arrest, at least 200 parasites were analyzed per condition per experiment after 48 hrs incubation at compounds' EC50, and the average plus standard error for three experiments was calculated. Representative images were selected from the maximal intensity projections and linearly processed in Adobe Photoshop CS6.
The molecular target of MMV676477 was investigated.

[4] = system: L. amazonensis promastigotes and amastigotes; assay: Tubulin intensity by confocal immunofluorescence microscopy; format: cell-based, Leishmania amazonensis; settings: 24 h at EC50^72 h
Experimental: as §2
One reason why MMV676477 might affect parasite cell division is that, like paclitaxel, it might affect microtubule polymerization, either directly or indirectly. The degree to which MMV676477 affected microtubules polymerization in cells was examined. […] Centrifugation of these extracts allowed separation of insoluble polymeric (pellet) and soluble dimeric (supernatant) tubulin. […] The intensity of α-tubulin staining was examined by normalizing it to the intensity of a membrane protein (gp46 for promastigotes in FIG. 4D; p8 for amastigotes in FIG. 4E).

[5] = biological target: purified L. tarentolae tubulin (Leishmania tarentolae, UniProt A0A640KCM0+A0A640KQN0); assay: Tubulin polymerization turbidity assay, Leishmania tubulin; format: biochemical
Experimental: L. tarentolae (Parrot strain from ATCC) tubulin was purified. Briefly, promastigotes of L. tarentolae were grown to a high density (˜1×10^8 cells/mL), harvested, and resuspended in PME+P buffer containing 100 mM piperazine N, N′-bis (2-ethanesulfonic acid) (PIPES) buffer (pH 6.9), 1 mM glycol ether diamine tetraacetic acid (EGTA), 1 mM MgCl2, 1 mM benzamidine, 0.5 mM phenylmethylsulfonyl fluoride, 25 μg/ml leupeptin. The resulting suspension was extensively sonicated on ice with a probe sonicator (Misonix), cooled on ice for 30 minutes and centrifuged at 40,000×g for 1 hour at 4° C. using an ultracentrifuge (Beckman, Fullerton, CA). The resulting supernatant was filtered through a glass wool or 0.45-micron filter before loading into an equilibrated DEAE-Sepharose Fast Flow matrix (Amersham Biosciences). The column was washed with two column volumes of PME+P and subsequently four column volumes PME+P containing 0.1 M KCl and 0.25 M glutamate (pH 6.9). Tubulin was eluted with two column volumes PME+P containing 0.3 M KCl and 0.75 M glutamate (pH 6.9), and tubulin-rich fractions were confirmed by tubulin polymerization assays. The assembly-competent tubulin was pooled together and diluted into 1×PME buffer, 2 mM GTP, 10 mM MgCl2 and 8% DMSO (v/v). Tubulin was incubated in this buffer for 45 minutes at 30° C. to promote assembly, centrifuged at 50,000×g at 30° C. for 30 min, and re-suspended in 1 mL of ice-cold PME. […] Purity was assessed by SDS-PAGE and Coomassie Blue.
Tubulin polymerization assays were performed in 96-well half-area microplates (Costar) in a final volume of 100 μL. […] The absorbance at 340 nm was recorded in a Synergy H1 microplate reader (BioTek) for up to 45 min at 37° C. […]
To determine whether MMV676477 directly regulates microtubule assembly, assembly-competent tubulin from Leishmania tarentolae was purified and analyzed (FIG. 5A). […] 3 mg/mL purified L. tarentolae tubulin (3 mg/mL) was treated with serial dilutions of MMV676477 while the absorbance was measured at 340 nm over time.

SMILES: CCc1c(C)nc(-n2nc(C)cc2NC(=O)c2ccccc2SC)[nH]c1=O [MMV676477, N-(1-(5-Ethyl-4-methyl-6-oxo-1,6-dihydropyrimidin-2-yl)-3-methyl-1H-pyrazol-5-yl)-2-(methylthio)benzamide]
- activity against Plasmodium falciparum (in words) [1]: nanomolar-range cytocidal potency; also recorded: broad activity; also recorded: nanomolar concentrations
- activity against L. donovani axenic amastigotes (in words) [2]: broad activity
- percentage of L. amazonensis undergoing cell division [3]: significant two-fold increase
- tubulin intensity over control (DMSO-treated) [4]: significant two-fold increase in tubulin intensity
- EC50 [5]: 500 nM
- selectivity for purified Leishmania tubulin over mammalian tubulin ([5]; 0.5 vs 11 μM EC50): 20 fold

From patent US20240139190A1, “NOVEL ANTIPARASITIC COMPOUNDS AND METHODS” (The Board of Regents of The University of Texas System, priority 2019, published 2024)
